In patent US9833495B2, “Oral treatment of inflammatory bowel disease” (Defensin Therapeutics ApS, priority 2011, dated 2017):

System: DSS-induced colitis in male C57BL/6 mice
Experiment: 10-Day Dextran Sodium Sulphate (DSS)-induced colitis model in the mouse
Assay type: in vivo
Details: for additional DAI score without change in body weight (only stool consistency and rectal bleeding): oral, 10-day treatment
Excerpt: 10-Day Dextran Sodium Sulphate (DSS)-Induced Colitis Model in the Mouse
The aim of the following study was to determine the anti-inflammatory activity of human beta defensin 2 in an acute (10-days) model of inflammatory bowel disease (colitis) induced by oral dextran sodium sulphate (DSS) administration in the mouse.
Study design: animals were divided into 5 experimental groups. Each group consisted of 10 males: Group A: Treated with Control vehicle (PBS) p.o. twice daily. Group B: Treated with methylprednisolone (1 mg/kg p.o. twice daily). Group C: Treated with hBD2 (0.05 mg/kg p.o. twice daily). Group D: Treated with hBD2 (0.5 mg/kg p.o. daily). Group E: Treated with hBD2 (5 mg/kg p.o. […]). Animal allocation to all experimental groups was done in a randomized manner. A maximum of 5 mice were housed in each cage (as per Directive 86/609/EEC). All animals were weighed on their arrival at the laboratory and prior to the administration of the test items.
The control vehicle and hBD2 were administered orally with the use of a sterile cannula in a dosing volume of 10 ml/kg body weith. The animals of all groups received 2 doses daily (at 9.00 h and 17.00 h) of the corresponding test item (test, reference or vehicle) for 10 consecutive days (experimental days 1-10).
Colitis was induced in mice by supplementing their drinking water with DSS 2% for 7 days. On Day 1 all mice were weighed and marked according to their experimental groups. The drinking bottle of each cage was filled with the DSS solution, making sure all bottle lids were mounted properly and that none were congested. On Day 3 any remaining solution in the bottles was emptied and refilled with fresh DSS solution. This procedure was repeated again on Day 5. On Day 8 any remaining solution was discarded and replaced with autoclaved water. Animals were sacrificed 2 days later on Day 10.
Daily clinical assessment of DSS-treated animals was carried out, with the calculation of a validated clinical Disease Activity Index (DAI) ranging from 0 to 4 according to the following parameters: stool consistency, presence or absence of rectal bleeding and weight loss:
Bodyweight loss was calculated as the percent difference between the original bodyweight (Day 1) and the actual bodyweight on each experimental day (2-10). The appearance of diarrhoea is defined as mucus/faecal material adherent to anal fur. Rectal bleeding is defined as diarrhoea containing visible blood/mucus or gross rectal bleeding. The maximum score of the DAI each day is 12.
On day 10, two hours after the last administration of control vehicle, hBD2 or prednisolone, the animals were killed by an overdose of anaesthetic. Their colons were removed and their length and weight measured after exclusion of the caecum. Two sections (proximal and distal) of colon were taken from each animal and preserved in neutral buffered formalin for subsequent histological analysis (haematoxylin and eosin staining) according to the following scoring system:
Description Score: No changes observed (0). Minimal scattered mucosal inflammatory cell infiltrates, with or without minimal epithelial hyperplasia (1). Mild scattered to diffuse inflammatory cell infiltrates, sometimes extending into the submucosa and associated with erosions, with minimal to mild epithelial hyperplasia and minimal to mild mucin depletion from goblet cells (2). Mild to moderate inflammatory cell infiltrates that were sometimes transmural, often associated with ulceration, with moderate epithelial hyperplasia and mucin depletion (3). Marked inflammatory cell infiltrates that were often transmural and associated with ulceration, with marked epithelial hyperplasia and mucin depletion (4). Marked transmural inflammation with severe ulceration and loss of intestinal glands (5). […]

[1] = 1 mg/kg p.o. twice daily (Group B), day 10

## C[C@H]1C[C@@H]2[C@H]([C@@H](O)C[C@@]3(C)[C@H]2CC[C@]3(O)C(=O)COC(=O)CCC(=O)O)[C@@]2(C)C=CC(=O)C=C12 [Methylprednisolone 21-hemisuccinate, reference compound]
[1]
  histological injury induced by DSS in the distal colon: significantly reduced
  histological injury induced by DSS in the proximal colon: significantly reduced
Group B, from day 2 until the end of the study
  body weight: significant decrease
  additional DAI score without change in body weight (only stool consistency and rectal bleeding): very significant anti-inflammatory activity
Reference item, 1 mg/kg p.o. twice daily
  effect on disease activity index (DAI) vs vehicle: significant inhibition

## Human beta defensin 2 (GIGDPVTCLKSGAICHPVFCPRRYKQIGTCGLPGTKCCKKP; mat_peptide; listed as Homo sapiens) [NZ39000]
10-Day DSS-induced colitis model in the mouse
  severity of disease parameters: significantly reduce
hBD2 0.05 mg/kg p.o., Day 10, mean ± SEM, n=10, P < 0.05 vs vehicle
  Disease Activity Index (DAI): 8 ± 0.73
High dose of test item, day 10 (P<0.05)
  body weight vs control group: significant increase
  additional DAI score without change in body weight (only stool consistency and rectal bleeding): very significant anti-inflammatory activity
Orally administered, day 10
  histological damage score of proximal and distal colons: very significant reduction
Three dose levels (0.05, 0.5, 5 mg/kg) via the oral route
  effect on disease activity index (DAI) vs vehicle: significant inhibition
Twice daily, at 3 dose levels, p.o., day 10
  histological damage in the proximal colon: significant reduction
Twice daily, intermediate and high dose levels, p.o., day 10
  histological damage in the distal colon: significant reduction
